Data reported in patent US20240318160A1 (Wisconsin Alumni Research Foundation, priority 2023, published 2024).

Legend:
Type in all cases: biochemical
[1] = test system: Joinvillea ascendens JaPAL^F140H_MUT8 variant A448S; experiment: TAL and PAL enzyme kinetics; conditions: PAL assay (L-Phe), pH 8.5, 30° C.
Description: (§1) To determine which of the 8 circle residues are essential in the conversion of PAL enzymes to PTAL enzymes (FIG. 3C), we mutated, one by one, each one of these 8 residues back to the PAL type in JaPAL^F140H_MUT8 and determined their effects on catalytic efficiency.
(§2) A mixture containing 100 mM Tris-HCl (pH 8.5), 1% glycerol, and purified enzyme in a total volume of 50 μl was preincubated for 3 min at 30° C. […] The reactions were terminated by addition of 6N acetic acid (10 μl).
(§3) The kinetic parameters of the recombinant enzymes were determined using HPLC. Reaction mixtures containing 100 mM Tris-HCl (pH 8.5), 1% glycerol, and purified enzyme (0.15 μg for PAL assay and 1 μg for TAL assay) in a 50 μl total volume were preincubated for 3 min at 30° C. […] After 10 min and 20 min incubations for PAL and TAL assay, respectively, at 30° C., the reaction was terminated by addition of 6N acetic acid (10 μl). […] The products were quantified using calibration curves generated using authentic standards. Non-linear hyperbolic regression analyses were conducted using the Excel Solver tool to calculate Km and Vmax values.

[2] = test system: Joinvillea ascendens JaPAL^F140H_MUT8 variant G121A; experiment: TAL and PAL enzyme kinetics; conditions: PAL assay (L-Phe), pH 8.5, 30° C.
Description: as §1, §2, §3

[3] = test system: Joinvillea ascendens JaPAL^F140H_MUT8 variant I102V; experiment: TAL and PAL enzyme kinetics; conditions: PAL assay (L-Phe), pH 8.5, 30° C.
Description: as §1, §2, §3

[4] = test system: Joinvillea ascendens JaPAL^F140H_MUT8 variant I122S (in Table 3; I112S in text); experiment: TAL and PAL enzyme kinetics; conditions: PAL assay (L-Phe), pH 8.5, 30° C.
Description: as §1, §2, §3

[5] = test system: Joinvillea ascendens JaPAL^F140H_MUT8 variant L138I; experiment: TAL and PAL enzyme kinetics; conditions: PAL assay (L-Phe), pH 8.5, 30° C.
Description: as §1, §2, §3

[6] = test system: Joinvillea ascendens JaPAL^F140H_MUT8 variant S267A; experiment: TAL and PAL enzyme kinetics; conditions: PAL assay (L-Phe), pH 8.5, 30° C.
Description: as §1, §2, §3

[7] = test system: Joinvillea ascendens JaPAL^F140H_MUT8 variant T444P; experiment: TAL and PAL enzyme kinetics; conditions: PAL assay (L-Phe), pH 8.5, 30° C.
Description: as §1, §2, §3

[8] = test system: Joinvillea ascendens JaPAL^F140H_MUT8 variant V500I; experiment: TAL and PAL enzyme kinetics; conditions: PAL assay (L-Phe), pH 8.5, 30° C.
Description: as §1, §2, §3

[9] = test system: Joinvillea ascendens JaPAL variant F140H/S112I (JaPAL^F140H_S112I), SEQ ID NO: 145; experiment: TAL and PAL enzyme kinetics; conditions: PAL assay (L-Phe), pH 8.5, 30° C.
Description: (§4) To test this hypothesis further, the reciprocal S112I mutation was introduced into the JaPAL^F140H single mutant to generate the JaPAL^F140H_S112I double mutant. For comparison, a single mutant in which the residue corresponding to Ser112 was converted to Ile (i.e., JaPAL^S112I) was generated as well.
as §2, §3

[10] = test system: Joinvillea ascendens JaPAL variant S112I (JaPAL^S112I), SEQ ID NO: 258; experiment: TAL and PAL enzyme kinetics; conditions: PAL assay (L-Phe), pH 8.5, 30° C.
Description: as §4, §2, §3

[11] = test system: PTAL^H140F mutants (SbPTAL^H123F, BdPTAL^H123F, SaPTAL-a^H118F, SaPTAL-b^H126F, EmoPTAL^H127F, JaPTAL^H125F); experiment: TAL and PAL enzyme kinetics, group of enzymes; conditions: on average
Excerpt: To experimentally test the role of His 140 in the acquisition of TAL activity, we next conducted site-directed mutagenesis on the PAL and PTAL enzymes of grasses and non-grass graminids characterized above and analyzed their effects on TAL activity. For the PAL enzymes, the residue corresponding to Phe 140 was converted to His to generate JaPAL^F140H EmoPAL^F134H, BdPAL^F137H, and SbPAL^F135H. […] For the PTAL enzymes, the residue corresponding to His 140 was converted to Phe to generate SbPTAL^H123F, BdPTAL^H123F, SaPTAL-a^H118F, SaPTAL-b^H126F, EmoPTAL^H127F, and JaPTAL^H125F. […] Thus, unlike in the bacterial TAL enzyme (Watts et al., 2006), other residues besides the His 140 are likely important for the acquisition of strong TAL activity in the PTAL enzymes of grasses and closely-related non-grass graminids.
The kinetic parameters of the recombinant enzymes were determined using HPLC. Reaction mixtures containing 100 mM Tris-HCl (pH 8.5), 1% glycerol, and purified enzyme (0.15 μg for PAL assay and 1 μg for TAL assay) in a 50 μl total volume were preincubated for 3 min at 30° C. PAL and TAL reactions were started by addition of 50 μl substrate solution prepared with 0-4 mM L-Phe and 0-2 mM L-Tyr. After 10 min and 20 min incubations for PAL and TAL assay, respectively, at 30° C., the reaction was terminated by addition of 6N acetic acid (10 μl). […] The products were quantified using calibration curves generated using authentic standards. Non-linear hyperbolic regression analyses were conducted using the Excel Solver tool to calculate Km and Vmax values.

## N[C@@H](Cc1ccccc1)C(=O)O [L-Phe, phenylalanine]
[1]
  Km: 168 ± 11.3 µM
  kcat: 0.80 ± 0.03 s⁻¹
  kcat/Km: 4790 ± 430 M⁻¹ s⁻¹
[2]
  Km: 58.1 ± 3.4 µM
  kcat: 0.57 ± 0.02 s⁻¹
  kcat/Km: 9880 ± 310 M⁻¹ s⁻¹
[3]
  Km: 232 ± 3.5 µM
  kcat: 0.74 ± 0.01 s⁻¹
  kcat/Km: 3190 ± 80 M⁻¹ s⁻¹
[4]
  Km: 2290 ± 344 µM
  kcat: 0.29 ± 0.04 s⁻¹
  kcat/Km: 310 ± 0 M⁻¹ s⁻¹
[5]
  Km: 74.3 ± 1.1 µM
  kcat: 0.66 ± 0.01 s⁻¹
  kcat/Km: 8860 ± 10 M⁻¹ s⁻¹
[6]
  Km: 317 ± 6.6 µM
  kcat: 0.85 ± 0.04 s⁻¹
  kcat/Km: 2670 ± 60 M⁻¹ s⁻¹
[7]
  Km: 192 ± 3.6 µM
  kcat: 0.90 ± 0.05 s⁻¹
  kcat/Km: 4700 ± 220 M⁻¹ s⁻¹
[8]
  Km: 151 ± 3.7 µM
  kcat: 0.82 ± 0.02 s⁻¹
  kcat/Km: 5450 ± 140 M⁻¹ s⁻¹
[9]
  Km: 67.3 ± 2.5 µM
  kcat: 0.77 ± 0.01 s⁻¹
  kcat/Km: 11460 ± 210 M⁻¹ s⁻¹
[10]
  Km: 2.6 ± 0.5 µM
  kcat: 0.21 ± 0.04 s⁻¹
  kcat/Km: 79800 ± 0 M⁻¹ s⁻¹
[11]; PAL activity (Phe)
  kcat relative to wild type: 0.25 fold
[11]; PAL activity
  Km toward Phe relative to corresponding wild-type enzymes: 0.04 fold
